According to PubChem BioAssay (NCI):
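Protocol summary: plate cells (96-well), add compound at 5 concentrations, incubate 48 h, interpolate endpoints linearly. GI50 is the concentration that inhibits growth by half. TGI is the concentration that stops growth completely.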

Assays:
Assay in all cases: DTP human tumour cell line panel, 48 h
OVCAR-4 ovarian = system: OVCAR-4 ovarian
NCI/ADR-RES ovarian = system: NCI/ADR-RES ovarian
SNB-19 CNS = system: SNB-19 CNS
SK-MEL-5 melanoma = system: SK-MEL-5 melanoma
PC-3 prostate = system: PC-3 prostate
SK-MEL-28 melanoma = system: SK-MEL-28 melanoma
MCF7 breast = system: MCF7 breast
NCI-H23 lung = system: NCI-H23 lung
MDA-MB-231 breast = system: MDA-MB-231 breast
MALME-3M melanoma = system: MALME-3M melanoma

| SMILES | GI50 (OVCAR-4 ovarian) | TGI (OVCAR-4 ovarian) | GI50 (NCI/ADR-RES ovarian) | TGI (NCI/ADR-RES ovarian) | GI50 (SNB-19 CNS) | TGI (SNB-19 CNS) | GI50 (SK-MEL-5 melanoma) | TGI (SK-MEL-5 melanoma) | GI50 (PC-3 prostate) | TGI (PC-3 prostate) | GI50 (SK-MEL-28 melanoma) | TGI (SK-MEL-28 melanoma) | GI50 (MCF7 breast) | TGI (MCF7 breast) | GI50 (NCI-H23 lung) | TGI (NCI-H23 lung) | GI50 (MDA-MB-231 breast) | TGI (MDA-MB-231 breast) | GI50 (MALME-3M melanoma) | TGI (MALME-3M melanoma) |
| --- | --- | --- | --- | --- | --- | --- | --- | --- | --- | --- | --- | --- | --- | --- | --- | --- | --- | --- | --- | --- |
| O=C(NNS(=O)(=O)c1cc(C(F)(F)F)cc(C(F)(F)F)c1)c1cnn(-c2ccc(Cl)cc2)c1C(F)(F)F | 38.3 µM | > 100 µM | 19.6 µM | 41 µM | 20.2 µM | 49.7 µM | 14.3 µM | 29.6 µM | 16.4 µM | 32.8 µM | 20.3 µM | 51.7 µM | 21.5 µM | 58.9 µM | 18.5 µM | 40.8 µM | 19.6 µM | 40.3 µM | 16.9 µM | 34.3 µM |
| O=c1[nH]c(-c2ccc(C(F)(F)F)cc2)nc2c1CSCC2 | 20.1 µM | > 100 µM | 35.8 µM | > 100 µM | 47.3 µM | > 100 µM | 88.9 µM | > 100 µM | > 77.3 µM | > 100 µM | 80.3 µM | > 100 µM | > 100 µM | > 100 µM | 41.9 µM | > 100 µM | 40.4 µM | > 100 µM | 30.9 µM | > 100 µM |
| NC(CSC(c1ccccc1)(c1ccccc1)c1ccc2ccccc2c1)C(=O)O (stereo not given) | 13.1 µM | 33.2 µM | 0.989 µM | 3.64 µM | 0.066 µM | 17.3 µM | 0.0438 µM | 11.5 µM | 0.0628 µM | > 82.7 µM | 0.38 µM | 16 µM | 0.0321 µM | 21.9 µM | 0.131 µM | 16.4 µM | 0.0695 µM | 5 µM | 1.33 µM | 25.4 µM |
| c1ccc(-c2nc(N3CCNCC3)c3nc(-c4ccccc4)oc3n2)cc1 | 1.9 µM | 3.63 µM | 1.87 µM | 3.69 µM | 1.74 µM | 3.34 µM | 1.8 µM | 3.23 µM | 1.66 µM | 3.24 µM | 1.81 µM | 3.29 µM | 1.7 µM | 3.58 µM | 1.76 µM | 3.32 µM | 1.67 µM | 3.2 µM | 1.7 µM | 3.19 µM |
| O=[As](O)(O)c1ccc(Cc2ccc([As](=O)(O)O)cc2)cc1 | – | 7.47 µM | – | 6.79 µM | – | 2.65 µM | – | 1.89 µM | – | 1.76 µM | – | 2.92 µM | – | 1.19 µM | – | 2.26 µM | – | 2.3 µM | – | 2.62 µM |
| Cn1c(O)c(C(=O)Nc2ccc([N+](=O)[O-])cc2)c(=O)n(C)c1=S | – | 13.5 µM | – | 11 µM | – | 10.1 µM | – | 5.84 µM | – | 5.34 µM | – | 3.68 µM | – | > 100 µM | – | 3.26 µM | – | 6.12 µM | – | 5.03 µM |
| COc1ccc(/C=C(\C#N)c2cc3ccccc3n2C)cc1 | 1.09 µM | > 100 µM | 0.319 µM | > 28.7 µM | 0.492 µM | > 100 µM | 0.504 µM | 16.9 µM | 0.448 µM | > 100 µM | 4.52 µM | > 100 µM | 0.343 µM | > 100 µM | 0.645 µM | > 100 µM | 0.699 µM | > 100 µM | 0.475 µM | > 100 µM |
| COc1ccc(/C=C2\N=C3SC=C(N)N3C2=O)cc1 | 0.485 µM | 11 µM | 2.76 µM | 18.6 µM | 3.32 µM | 17 µM | 0.833 µM | 2.64 µM | 0.559 µM | 3.57 µM | 1.29 µM | 4.75 µM | 0.459 µM | 6.29 µM | 1.67 µM | 8.47 µM | 1.05 µM | 3.63 µM | 0.23 µM | 1.52 µM |
| COC(=O)C1(Cc2cccc(Cl)c2)CCCCCCN1C(=O)c1ccccc1 (stereo not given) | – | 50.6 µM | – | 54.1 µM | – | 31.2 µM | – | 26.6 µM | – | 17.4 µM | – | 31.7 µM | – | 26.6 µM | – | 51.1 µM | – | 29 µM | – | 25.3 µM |
| C[C@@H]1CC[C@@]2(OC1)O[C@H]1C[C@H]3[C@@H]4CC=C5C[C@@H](O[C@@H]6O[C@H](CO)[C@@H](O[C@@H]7O[C@@H](CO)[C@H](O)[C@H]7O)[C@H](O)[C@H]6O[C@@H]6O[C@@H](C)[C@H](O)[C@@H](O)[C@H]6O)CC[C@]5(C)[C@H]4CC[C@]3(C)[C@H]1[C@@H]2C | 1.36 µM | 2.71 µM | 1.43 µM | 2.78 µM | 1.21 µM | 2.45 µM | 1.6 µM | 2.95 µM | 1.45 µM | 2.81 µM | 1.2 µM | 2.44 µM | 1.8 µM | 3.3 µM | 1.58 µM | 2.97 µM | 0.514 µM | 1.77 µM | 0.681 µM | 2 µM |
| CCSC1=CC(=O)c2ccccc2C1=O | 0.959 µM | 2.37 µM | 2.37 µM | 7.39 µM | 16.8 µM | 40.6 µM | 7.11 µM | 20.3 µM | 5.84 µM | 18.5 µM | 14.4 µM | 28.9 µM | 4.12 µM | 15.1 µM | 9.05 µM | 26.6 µM | 0.759 µM | 3.3 µM | 1.99 µM | 5.34 µM |
| CC(=O)OC1CCC2(C)C(=CC(C3C=C4CC(OC(C)=O)CCC4(C)C4=C3C3CC5OC6(CCC(C)CO6)C(C)C5C3(C)CC4)C3=C2CCC2(C)C3CC3OC4(CCC(C)CO4)C(C)C32)C1 (stereo not given) | – | 28.2 µM | – | 37.7 µM | – | 30.4 µM | – | 25.7 µM | – | 25.6 µM | – | 31.5 µM | – | 21.9 µM | – | 27.9 µM | – | 32 µM | – | 26.4 µM |
| CC(=O)N1CC(F)(F)c2c(Sc3ncc(N4CCC5(CC4)COC[C@H]5N)nc3N)cccc21 | 10.5 µM | 96.6 µM | 27.6 µM | > 100 µM | 14.4 µM | > 100 µM | 16 µM | 30.1 µM | 29.8 µM | > 100 µM | 16.1 µM | 30.7 µM | 15.8 µM | 55.6 µM | 3.35 µM | > 100 µM | 17.3 µM | 41.5 µM | 15.5 µM | 31.5 µM |
